# Residues, ends and D or L forms follow the SMILES beside them. *: point of attachment. Cbz = O=C(OCc1ccccc1)*; CH2F = FC*
# B1: mature Smac protein: mature Smac protein, endogenous inhibitor of XIAP (protein, UniProt Q9NR28 22-239, looked up)
# Diablo IAP-binding …: LCVPVVANFKKRCFSELIRPWHKTVTIGFGVTLCAVPIAQKSEPHSLSSEALMRRAVSLVTDSTSTFLSQTTYALIEAITEYTKAVYTLTSLYRQYTSLLGKMNSEEEDEVWQVIIGARAEMTSKHQEYLKLETTWMTAVGLSEMAAEAAYQTGADQASITARNHIQLVKLQVEEVHQLSRKAETKLAEAQIEELRQKTQEEGEERAESEQEAYLRED
# Key:
# [1] = test system: cIAP-1 in cancer cell lines; test: Induction of cIAP-1 degradation in cancer cells; type: cell-based; details: sensitive and resistant cancer cell lines
# [2] = biological target: T1, Recombinant XIAP containing linker-BIR2-BIR3 (residues 120-356) (Homo sapiens, UniProt P98170); test: Cell-free functional assay: antagonism of XIAP inhibition of caspase-3/-7; type: biochemical; details: up to 100 μM
# T1 construct: Recombinant XIAP containing linker-BIR2-BIR3 (residues 120-356)
# [3] = test system: XIAP, cIAP-1, and cIAP-2 proteins; test: Fluorescence-polarization based binding of control compounds to IAP proteins
# Method: Therefore binding affinities of Smac mimetics to cIAP-2 BIR3-only protein were evaluated.
# [4] = biological target: T2, human XIAP protein (residues 120-356) (Homo sapiens, UniProt P98170); test: Fluorescence-polarization-based binding assay to XIAP protein (Smac2-F tracer); details: read-out: Binding to XIAP IC50 values
# T2 construct: human XIAP protein (residues 120-356) (10 nM)
# Method: The polarization values were measured after 2 hours incubation, using the Ultra plate reader. […] Curve fitting is performed using GraphPad Prism® software.
# [5] = test system: MDA-MB-231 human breast cancer cell line; test: Cell growth inhibition, WST-8 assay, MDA-MB-231; type: cell-based; details: MDA-MB-231, read-out: IC50 values (nM) In WST-assay (MDA-MB-231)
# Method: (§1) The rate of cell growth inhibition after treatment with different concentrations of the compound was determined using a WST-8 kit (2-(2-methoxy-4-nitrophenyl)-3-(4-nitrophenyl)-5-(2, 4 disulfophenyl)-2H-tetrazolium monosodium salt; Dojindo Molecular Technologies, Inc., Gaithersburg, Md.). WST-8 was added at a final concentration of 10% to each well, and then the plates were incubated at 37° C. for 2-3 hrs. The absorbance of the samples was measured at 450 nm using a ULTRA Tecan Reader (Molecular Device).
# [6] = test system: SK-OV-3; test: Cell growth inhibition, WST assay, SK-OV-3; type: cell-based; details: Homo sapiens
# Method: as §1, with “Cells were seeded in 96-well flat bottom cell culture plates at a density of 3000 cells/well with a tested compound and incubated at 37° C. in an atmosphere of 95% air and 5% CO2 for 4 days. The rate” for “The rate”
# [7] = biological target: T3, XIAP BIR3 protein of human XIAP (residues 241-356) (Homo sapiens, UniProt P98170); test: Fluorescence polarization (FP) based binding assay to XIAP BIR3; details: read-out: Binding Affinities to XIAP BIR3 (IC50 [uM])
# T3 construct: human XIAP (residues 241-356) fused to His-tag; His-tag
# Source text: In order to test the binding ability of the bivalent Smac mimetics to IAP proteins, a sensitive and quantitative in vitro binding assay using the fluorescence polarization (FP) based method was developed and used to determine the binding affinity of Smac mimetics to XIAP protein (Nikolovska-Coleska et al., Anal Biochem. 332:261-73 (2004)). […] The recombinant XIAP BIR3 protein of human XIAP ([…]) fused to His-tag was stable and soluble, and was used for the FP based binding assay. The dose-dependent binding experiments were carried out with serial dilutions of the tested compounds in DMSO. […] Inc., Research Triangle Park, N.C.). […] Curve fitting was performed using […] PRISM software (GraphPad Software, Inc., San Diego, Calif.).
# [8] = test system: MDA-MB-231 and SK-OV-3 cancer cell lines; test: Role of caspase-8, -3 and -9 (siRNA, caspase inhibitors) in activity of Smac mimetics; type: cell-based
# Source text: To examine the role of caspase-8, -3 and -9 in apoptosis induction by Smac mimetics, siRNA was employed against these caspases in MDA-MB-231 and SK-OV-3 cancer cell lines.
# [9] = test system: MDA-MB-231 xenograft model; test: Inhibition of tumor growth in the MDA-MB-231 xenograft model; type: in vivo, mice; details: 7.5 mg/kg
# Method: SM-164 was evaluated for its ability to inhibit tumor growth. […] Treatment with SM-164 at 5 mg/kg reduces the tumor volume from 147±54 mm^3 at the beginning of the treatment (day 25) to 54±32 mm^3 at the end of the treatment (day 36), a reduction of 65%. The strong antitumor activity by SM-164 is long lasting and not transient.
# [10] = test system: MDA-MB-231 (2LMP) breast cancer cells; test: Cell growth inhibition by TRAIL alone or with Smac mimetic, MDA-MB-231 (2LMP); type: cell-based, human
# Method: as §1
# (§2) To test the ability of bivalent Smac mimetics to sensitize cancer cells to the growth inhibiting effects of other agents, cell growth inhibition assays were carried out with various agents alone or in combination with increasing doses of bivalent Smac mimetics.
# [11] = test system: MDA-MB-453 breast cancer cells; test: Cell growth inhibition by TRAIL alone or with Smac mimetic, MDA-MB-453; type: cell-based
# Method: as §1, §2
# [12] = test system: PC-3 human prostate cancer cells; test: Cell growth inhibition by TRAIL alone or with Smac mimetic, PC-3; type: cell-based
# Method: as §1, §2
# [13] = biological target: XIAP (Homo sapiens, UniProt P98170); details: cited from earlier work
# Sequence of XIAP (P98170 whole entry): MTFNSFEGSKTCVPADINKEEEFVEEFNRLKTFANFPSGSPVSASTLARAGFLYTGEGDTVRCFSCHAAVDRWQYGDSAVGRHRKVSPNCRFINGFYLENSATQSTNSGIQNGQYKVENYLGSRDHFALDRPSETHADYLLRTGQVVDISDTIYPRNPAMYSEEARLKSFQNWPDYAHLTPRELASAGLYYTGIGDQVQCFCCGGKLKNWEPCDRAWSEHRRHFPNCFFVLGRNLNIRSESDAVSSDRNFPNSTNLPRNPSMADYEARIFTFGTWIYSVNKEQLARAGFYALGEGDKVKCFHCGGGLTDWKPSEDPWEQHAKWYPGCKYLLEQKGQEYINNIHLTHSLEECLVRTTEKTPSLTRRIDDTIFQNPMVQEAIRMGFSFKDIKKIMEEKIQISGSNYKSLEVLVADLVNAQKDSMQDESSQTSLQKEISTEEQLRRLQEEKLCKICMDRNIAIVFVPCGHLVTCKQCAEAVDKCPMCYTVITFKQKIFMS
# T3 sequence (P98170 241-356): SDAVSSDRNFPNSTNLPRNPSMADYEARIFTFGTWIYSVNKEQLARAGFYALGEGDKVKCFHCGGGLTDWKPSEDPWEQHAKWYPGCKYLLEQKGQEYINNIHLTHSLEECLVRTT
# T2 sequence (P98170 120-356): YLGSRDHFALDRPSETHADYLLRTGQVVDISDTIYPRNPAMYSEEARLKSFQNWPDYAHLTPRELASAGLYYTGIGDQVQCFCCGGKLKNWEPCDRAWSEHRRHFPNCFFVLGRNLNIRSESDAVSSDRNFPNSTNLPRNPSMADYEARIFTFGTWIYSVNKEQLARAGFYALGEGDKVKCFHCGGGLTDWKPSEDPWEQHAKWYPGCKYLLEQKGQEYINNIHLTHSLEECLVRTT
# T1 sequence (P98170 120-356): as above
molecule,measurement,setting,value
"CC(C)C[C@@H](C=O)NC(=O)[C@H](CC(C)C)NC(=O)[C@H](CC(C)C)NC(=O)OCc1ccccc1 [MG-132, reference compound] (Cbz-Leu-Leu-Leu-aldehyde)",effect of proteasome inhibitor on cIAP-1 degradation by SM-122 and SM-164,[1],effectively blocked cIAP-1 degradation
CC(=O)NC(Cc1c[nH]c2ccccc12)C(=O)NC1CCCCC2CCC(C(=O)NC(c3ccccc3)c3cn(CCCCc4ccc(CCCCn5cc(C(NC(=O)C6CCC7CCCCC(NC(=O)C(Cc8c[nH]c9ccccc89)NC(C)=O)C(=O)N76)c6ccccc6)nn5)cc4)nn3)N2C1=O (stereo not shown) [SH-173],effect in the functional assay,[2],minimal effect
same,less potent than SM-164 to these IAP proteins,[3],1000 times
same,IC50,[4],> 10000 nM
CN[C@@H](C)C(=O)N[C@H]1CCCC[C@H]2CC[C@@H](C(=O)N[C@@H](c3ccccc3)c3cn(CCCCCOCCCCn4cc([C@@H](NC(=O)[C@@H]5CC[C@@H]6CCCC[C@H](NC(=O)[C@H](C)NC)C(=O)N65)c5ccccc5)nn4)nn3)N2C1=O [SH-198],IC50,[5],< 10 nM
same,IC50,[6],< 10 nM
same,IC50,[4],< 100 nM
CN[C@@H](C)C(=O)N[C@H]1CCCC[C@H]2CCC(C(=O)N[C@H](COCCCCCCCCCCCCOC[C@@H](NC(=O)[C@@H]3CC[C@@H]4CCCC[C@H](NC(=O)[C@H](C)NC)C(=O)N43)c3ccccc3)c3ccccc3)N2C1=O (stereo partly shown) [SH-202],IC50,[5],< 10 nM
same,IC50,[6],< 10 nM
same,IC50,[4],< 100 nM
CN[C@@H](C)C(=O)N[C@H]1CN(C(=O)Cc2ccc(F)cc2)CC[C@H]2CC[C@@H](C(=O)NCc3ccc(F)cc3)N2C1=O [SM-402],IC50,[7],< 0.1 µM
CN[C@@H](C)C(=O)N[C@H]1CN(C(=O)CCc2ccc(F)cc2)CC[C@H]2CC[C@@H](C(=O)NC(c3ccc(F)cc3)c3ccc(F)cc3)N2C1=O [SM-404],IC50,[7],< 0.1 µM
CN[C@@H](C)C(=O)N[C@H]1CN(C(=O)CC2CCCC2)CC[C@H]2CC[C@@H](C(=O)NC(c3ccccc3)c3ccccc3)N2C1=O [SM-405],IC50,[7],< 0.1 µM
CN[C@@H](C)C(=O)N[C@H]1CN(C(=O)CC(C)C)CC[C@H]2CC[C@@H](C(=O)NC(c3ccccc3)c3ccccc3)N2C1=O [SM-406],IC50,[7],< 0.1 µM
CN[C@@H](C)C(=O)N[C@H]1CN(C(=O)CCc2ccc(F)cc2)CC[C@H]2CC[C@@H](C(=O)NC(c3ccccc3)c3ccccc3)N2C1=O [SM-407],IC50,[7],< 0.1 µM
CN[C@@H](C)C(=O)N[C@H]1CN(C(=O)CCc2ccccc2)CC[C@H]2CC[C@@H](C(=O)NC(c3ccccc3)c3ccccc3)N2C1=O [SM-408],IC50,[7],< 0.1 µM
CCCC(=O)N1CC[C@H]2CC[C@@H](C(=O)NC(c3ccccc3)c3ccccc3)N2C(=O)[C@@H](NC(=O)[C@H](C)NC)C1 [SM-409],IC50,[7],< 0.1 µM
"COC(=O)CC[C@H](NC(=O)[C@H](CC(=O)OC)NC(=O)OCc1ccccc1)C(=O)N[C@H](C(=O)N[C@@H](CC(=O)OC)C(=O)CF)C(C)C [Z-DEVD-FMK, reference compound]","effect of caspase inhibitor on the activity of both Smac mimetics (SM-164, SM-122)",[8],markedly inhibited
"CC[C@H](C)[C@H](NC(=O)OCc1ccccc1)C(=O)N[C@@H](CCC(=O)OC)C(=O)N[C@H](C(=O)N[C@@H](CC(=O)OC)C(=O)CF)[C@@H](C)O [Z-IETD-FMK, reference compound] (Cbz-IE(OMe)TD(OMe)-CH2F)","effect of caspase inhibitor on the activity of both Smac mimetics (SM-164, SM-122)",[8],markedly inhibited
"CC(=O)O[C@@]12CO[C@@H]1C[C@H](O)[C@@]1(C)C(=O)[C@H](O)C3=C(C)[C@@H](OC(=O)[C@H](O)[C@@H](NC(=O)OC(C)(C)C)c4ccccc4)C[C@@](O)([C@@H](OC(=O)c4ccccc4)[C@H]21)C3(C)C [taxotere, reference compound]",inhibition of tumor growth compared to control,[9],effective in inhibition of tumor growth
same,tumor regression,[9],failed to achieve tumor regression
TRAIL: tumor necrosis factor-related apoptosis-inducing ligand,IC50 of TRAIL alone,[10],0.0022 µg/mL
same,IC50 of TRAIL alone,[11],> 1 µg/mL
same,IC50 of TRAIL alone,[12],> 0.3 µg/mL
B1,Kd,[13],420 nM

# Reference: patent US8202902B2, “Bivalent SMAC mimetics and the uses thereof” (The Regents of the University of Michigan, priority 2006, dated 2012)
